Reference: paper PMC9866728, “Dosing Methods to Enable Cell-Based In Vitro Testing of Complex Substances: A Case Study with a PAH Mixture” (Toxics, 2022)
Where “and” joins values, the source holds several entries; their conditions need not be identical. Equal entries are not always repeated. Where two headings read alike, the source gives them in different places.

What was measured:
[1] = Recovery over time from exposure to cell culture media without cells (GC-MS/MS); format: physicochemical
[2] = Loading kinetics of silicone micro-O-rings from methanol PAH solution (GC-MS/MS); format: physicochemical
[3] = Table S1; ref PubChem; cited from earlier work
[4] = O-ring loading rate constant, larger O-rings; ref Smith et al. 2010 [24]; cited from earlier work
[5] = Smith et al. O-Rings; ref Smith et al. 2010 [24]; cited from earlier work
[6] = MAF (400 ng/mL each PAH), one phase decay fit of nominal recovery
[7] = MAF (400 ng/mL each PAH), one phase decay fit of nominal recovery (text: ng/mL)
[8] = O-Rings (loaded in 10 µg/mL PAH solution), one phase association fit of nominal recovery
[9] = O-Rings, one phase association fit
[10] = O-Rings, one phase association fit (desorption into media)
[11] = Solvent Extract (DMSO, 15 ng/mL each PAH), one phase decay fit of nominal recovery
[12] = Solvent Extract (DMSO, 15 ng/mL each PAH), one phase decay fit of nominal recovery (text: ng/mL)
[13] = Solvent Extract, one phase decay fit
[14] = loading rate constant, one-phase association (h^-1), 10 µg/mL PAH mix in methanol
[15] = one-phase association fit of nominal Csilicone (µg/mL per Eq 1), 10 µg/mL PAH mix in methanol
[16] = one-phase association fit of nominal Csilicone, 10 µg/mL PAH mix in methanol, 0-24 h
[17] = one-phase association fit, micro-O-ring absorption

Row | Structure (SMILES) | Y0 [1, 6] | Plateau [1, 7] | K ([1]; MAF, one phase decay fit) | Span ([1]; MAF, one phase decay fit) | Tau ([1]; MAF, one phase decay fit) | Plateau [1, 8] | Y0 [1, 8] | Half-time [1, 9] | Span [1, 9] | Tau [1, 9] | K [1, 10] | Y0 [1, 11] | Half-time [1] | Half-time Value [2] | K Value [2] | Plateau Value [2] | Span Value [2] | Tau Value [2] | Y0 [2] | Smith et al. 2010 K Value [4] | further results
1 | Cc1cccc2ccccc12 [1-Methylnaphthalene] | 399.6 | 37.1 | 1.206 | 362.5 | 0.8293 | 1.035 | -0.0496 | 1.691 | 1.085 | 2.439 | 0.41 | 14.94 |  |  |  |  |  |  |  |  | Plateau [1, 12]: 2.307; K [1, 13]: 0.9085; Span [1, 13]: 12.63; Tau [1, 13]: 1.101; best-fit rate constants (micro-O-ring loading) ([2]; loading from methanol solution): 26.7 h⁻¹; K Value [2, 14]: 26.6865; Plateau Value [2, 15]: 0.8912; Y0 [2, 16]: 0; Half-time Value [2, 17]: 0.02597; Span Value [2, 17]: 0.8912; Tau Value [2, 17]: 0.03747; LogKow (PubChem) [3]: 3.87
2 | Cc1ccc2ccccc2c1 [2-Methylnaphthalene] |  |  |  |  |  |  |  |  |  |  |  |  | 0.5872 | 0.02597 | 26.6855 | 0.8914 | 0.8914 | 0.03747 | 0 |  | K [1]: 1.206 and 1.18 and 0.9072; Tau [1]: 0.8294 and 0.8472 and 1.102; best-fit rate constants (micro-O-ring loading) [2]: 26.7 h⁻¹
3 | c1cc2c3c(cccc3c1)CC2 [Acenaphthene] | 398.6 | 44.72 | 0.9374 | 353.9 | 1.067 | 0.8203 | -0.03588 | 2.678 | 0.8562 | 3.863 | 0.2589 | 14.88 |  |  |  |  |  |  |  | 1.8 | Plateau [1, 12]: 2.58; K [1, 13]: 0.7259; Span [1, 13]: 12.3; Tau [1, 13]: 1.378; K Value [2, 14]: 22.38; Plateau Value [2, 15]: 0.8224; Y0 [2, 16]: 0; Half-time Value [2, 17]: 0.03097; Span Value [2, 17]: 0.8224; Tau Value [2, 17]: 0.04468; LogKow (PubChem) [3]: 3.92
4 | C1=Cc2cccc3cccc1c23 [Acenaphthylene] | 399.1 | 41.99 | 1.016 | 357.1 | 0.9842 | 0.6692 | -0.08033 | 0.6114 | 0.7495 | 0.882 | 1.134 | 14.88 |  |  |  |  |  |  |  |  | Plateau [1, 12]: 2.66; K [1, 13]: 0.7341; Span [1, 13]: 12.22; Tau [1, 13]: 1.362; K Value [2, 14]: 22.7382; Plateau Value [2, 15]: 0.6656; Y0 [2, 16]: 0; Half-time Value [2, 17]: 0.03048; Span Value [2, 17]: 0.6656; Tau Value [2, 17]: 0.04398
5 | c1ccc2cc3ccccc3cc2c1 [Anthracene] | 398.5 | 49.04 | 0.9206 | 349.4 | 1.086 | 0.3725 | -0.1844 | 0.1723 | 0.5569 | 0.2486 | 4.022 | 14.66 |  |  |  |  |  |  |  | 1.82 | Plateau [1, 12]: 2.703; K [1, 13]: 0.5624; Span [1, 13]: 11.96; Tau [1, 13]: 1.778; K [5]: 2.3; K Value [2, 14]: 27.2512; Plateau Value [2, 15]: 0.255; Y0 [2, 16]: 0; Half-time Value [2, 17]: 0.02544; Span Value [2, 17]: 0.255; Tau Value [2, 17]: 0.0367; LogKow (PubChem) [3]: 4.45
6 | c1ccc2cc3c(ccc4ccccc43)cc2c1 [Benzo[a]anthracene] |  |  |  |  |  |  |  |  |  |  |  |  | 2.255 | 4.451 | 0.1557 | 0.1684 | 0.1684 | 6.421 | 0 | 1.38 | 
7 | c1ccc2c(c1)cc1ccc3cccc4ccc2c1c34 [Benzo[a]pyrene] | 391.4 | 203.9 | 0.5026 | 187.5 | 1.989 | 1.337 | 0.02292 | 1.658 | 1.314 | 2.392 | 0.418 | 15.28 |  |  |  |  |  |  |  | 1.32 | Plateau [1, 12]: 6.176; K [1, 13]: 0.1275; Span [1, 13]: 9.105; Tau [1, 13]: 7.845; K [5]: 0.57; K Value [2, 14]: 33.8629; Plateau Value [2, 15]: 0.1047; Y0 [2, 16]: 0; Half-time Value [2, 17]: 0.02047; Span Value [2, 17]: 0.1047; Tau Value [2, 17]: 0.02953; LogKow (PubChem) [3]: 6.13
8 | c1ccc2c(c1)-c1cccc3c1c-2cc1ccccc13 [Benzo[b]fluoranthene] |  |  |  |  |  |  |  |  |  |  |  |  | 1.392 | 0.02358 | 29.3997 | 0.1089 | 0.1089 | 0.03401 | 0 |  | 
9 | c1cc2ccc3ccc4ccc5cccc6c(c1)c2c3c4c56 [Benzo[g,h,i]perylene] |  |  |  |  |  |  |  |  |  |  |  |  | 1.63 | 0.01297 | 53.4605 | 0.06193 | 0.06193 | 0.01871 | 0 |  | 
10 | c1ccc2cc3c(cc2c1)-c1cccc2cccc-3c12 [Benzo[k]fluoranthene] | 386 | 124.5 | 0.2609 | 261.5 | 3.833 | 0.7223 | 0.005418 | 1.391 | 0.7169 | 2.006 | 0.4984 | 15.74 |  |  |  |  |  |  |  |  | Plateau [1, 12]: 4.199; K [1, 13]: 0.1008; Span [1, 13]: 11.54; Tau [1, 13]: 9.919; K Value [2, 14]: 29.8778; Plateau Value [2, 15]: 0.1081; Y0 [2, 16]: 0; Half-time Value [2, 17]: 0.0232; Span Value [2, 17]: 0.1081; Tau Value [2, 17]: 0.03347; LogKow (PubChem) [3]: 6.11
11 | c1ccc(-c2ccccc2)cc1 [Biphenyl] |  |  |  |  |  |  |  |  |  |  |  |  | 0.591 | 0.02096 | 33.0653 | 0.6997 | 0.6997 | 0.03024 | 0 |  | K [1]: 1.298 and 1.173 and 1.091; Tau [1]: 0.7703 and 0.8527 and 0.917
12 | c1ccc2c(c1)ccc1c3ccccc3ccc21 [Chrysene] |  |  |  |  |  |  |  |  |  |  |  |  | 77098 | 4.881 | 0.142 | 0.1581 | 0.1581 | 7.042 | 0 | 1.37 | 
13 | c1ccc2c(c1)ccc1cc3c(ccc4ccccc43)cc12 [Dibenzo[a,h]anthracene] |  |  |  |  |  |  |  |  |  |  |  |  | 1.539 | 3.094e-6 |  | 0.033 | 0.033 | 4.463e-6 | 0 | 1.1 | 
14 | c1ccc2c(c1)-c1ccc3ccc4cccc5cc-2c1c3c45 [Indeno[1,2,3-cd]pyrene] |  |  |  |  |  |  |  |  |  |  |  |  | 2.714 | 0.01649 | 42.0316 | 0.0758 | 0.0758 | 0.02379 | 0 |  | 
15 | c1ccc2ccccc2c1 [Naphthalene] | 399.7 | 38.47 | 1.287 | 361.2 | 0.7773 | 1.084 | -0.1564 | 0.378 | 1.24 | 0.5454 | 1.834 | 14.8 |  |  |  |  |  |  |  | 2.38 | Plateau [1, 12]: 3.339; K [1, 13]: 0.6384; Span [1, 13]: 11.46; Tau [1, 13]: 1.566; K [5]: 3.55; K Value [2, 14]: 33.9576; Plateau Value [2, 15]: 0.7013; Y0 [2, 16]: 0; Half-time Value [2, 17]: 0.02041; Span Value [2, 17]: 0.7013; Tau Value [2, 17]: 0.02945
16 | c1cc2cccc3c4cccc5cccc(c(c1)c23)c54 [Perylene] |  |  |  |  |  |  |  |  |  |  |  |  | 1.656 | 0.02047 | 33.856 | 0.1047 | 0.1047 | 0.02954 | 0 |  | 
17 | c1cc2ccc3cccc4ccc(c1)c2c34 [Pyrene] |  |  |  |  |  |  |  |  |  |  |  |  | 0.6521 | 0.03121 | 22.209 | 0.4017 | 0.4017 | 0.04503 | 0 | 1.35 | K [5]: 1.04
